Test results taken from patent US10770169B2, “Method of providing a treatment to a subject based on a dynamic pathway map” (THE REGENTS OF THE UNIVERSITY OF CALIFORNIA, priority 2010, dated 2020).
Entries after “also recorded” stand apart in the source; their conditions may differ.

Key:
[1] = tested on: panel of 55 breast cancer cell lines; assay: Cell growth inhibition assay (Cell Titer Glo, 72 h, 9 doses; GI50, TGI, LC50); assay type: cell-based, human; conditions: value is the negative log10 of mol/L
[2] = tested on: luminal, basal, claudin-low and ERBB2AMP breast cancer cell lines; assay: Associations of clinically relevant subtypes and response (non-parametric ANOVA or t-test on GI50 ranks); assay type: cell-based, human
In short: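 Significance was set at FDR p<0.20 after combining p-values across three test sets. Subtype–response associations came from rank-based non-parametric ANOVA or t-tests on GI50. For three-class comparisons, post-hoc tests of each group against the rest identified the most sensitive group, with FDR correction.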

SMILES: O=c1[nH]c2ccccc2n1C1CCN(Cc2ccc(-c3nc4cc5[nH]cnc5cc4nc3-c3ccccc3)cc2)CC1 [Sigma AKT1-2 inhibitor]
- GI50 ([1]; AU565 cell line, censored GI50 values): 5.61
- GI50 ([1]; BT20 cell line, censored GI50 values): 5.00
- GI50 ([1]; BT474 cell line, censored GI50 values): 6.08
- GI50 ([1]; BT483 cell line, censored GI50 values): 6.08
- GI50 ([1]; CAMA1 cell line, censored GI50 values): 5.59
- GI50 ([1]; HCC38 cell line, censored GI50 values): 4.98
- GI50 ([1]; HCC70 cell line, censored GI50 values): 5.74
- GI50 ([1]; HCC1143 cell line, censored GI50 values): 4.87
- GI50 ([1]; HCC1187 cell line, censored GI50 values): 5.47
- GI50 ([1]; HCC1419 cell line, censored GI50 values): 6.03
- GI50 ([1]; HCC1428 cell line, censored GI50 values): 5.35
- GI50 ([1]; HCC1500 cell line, censored GI50 values): 4.89
- GI50 ([1]; HCC1806 cell line, censored GI50 values): 5.05
- GI50 ([1]; HCC1937 cell line, censored GI50 values): 5.00
- GI50 ([1]; HCC1954 cell line, censored GI50 values): 5.08
- GI50 ([1]; HCC2185 cell line, censored GI50 values): 5.75
- GI50 ([1]; HCC3153 cell line, censored GI50 values): 4.99
- GI50 ([1]; LY2 cell line, censored GI50 values): 5.77
- GI50 ([1]; MCF7 cell line, censored GI50 values): 5.78
- GI50 ([1]; MDAMB134VI cell line, censored GI50 values): 5.02
- GI50 ([1]; MDAMB175VII cell line, censored GI50 values): 5.51
- GI50 ([1]; MDAMB361 cell line, censored GI50 values): 6.05
- GI50 ([1]; MDAMB415 cell line, censored GI50 values): 4.95
- GI50 ([1]; MDAMB436 cell line, censored GI50 values): 4.47
- GI50 ([1]; MDAMB453 cell line, censored GI50 values): 5.73
- GI50 ([1]; MDAMB468 cell line, censored GI50 values): 5.01
- GI50 ([1]; SKBR3 cell line, censored GI50 values): 5.68
- GI50 ([1]; SUM52PE cell line, censored GI50 values): 5.81
- GI50 ([1]; SUM149PT cell line, censored GI50 values): 5.03
- GI50 ([1]; SUM159PT cell line, censored GI50 values): 5.17
- GI50 ([1]; SUM185PE cell line, censored GI50 values): 5.95
- GI50 ([1]; SUM225CWN cell line, censored GI50 values): 6.05
- GI50 ([1]; SUM1315MO2 cell line, censored GI50 values): 5.33
- GI50 ([1]; T47D cell line, censored GI50 values): 5.78
- GI50 ([1]; UACC812 cell line, censored GI50 values): 5.53
- GI50 ([1]; ZR75B cell line, censored GI50 values): 5.93
- GI50 ([1]; ZR751 cell line, censored GI50 values): 5.94
- GI50 ([1]; cell line AU565): 5.61
- GI50 ([1]; cell line BT20): 5.00
- GI50 ([1]; cell line BT474): 6.08
- GI50 ([1]; cell line BT483): 6.08
- GI50 ([1]; cell line CAMA1): 5.59
- GI50 ([1]; cell line HCC38): 4.98
- GI50 ([1]; cell line HCC70): 5.74
- GI50 ([1]; cell line HCC1143): 4.87
- GI50 ([1]; cell line HCC1187): 5.47
- GI50 ([1]; cell line HCC1419): 6.03
- GI50 ([1]; cell line HCC1428): 5.35
- GI50 ([1]; cell line HCC1500): 4.89
- GI50 ([1]; cell line HCC1806): 5.05
- GI50 ([1]; cell line HCC1937): 5.00
- GI50 ([1]; cell line HCC1954): 5.08
- GI50 ([1]; cell line HCC2185): 5.75
- GI50 ([1]; cell line HCC3153): 4.99
- GI50 ([1]; cell line LY2): 5.77
- GI50 ([1]; cell line MCF7): 5.78
- GI50 ([1]; cell line MDAMB134V): 5.02
- GI50 ([1]; cell line MDAMB175V): 5.51
- GI50 ([1]; cell line MDAMB361): 6.05
- GI50 ([1]; cell line MDAMB415): 4.95
- GI50 ([1]; cell line MDAMB436): 4.47
- GI50 ([1]; cell line MDAMB453): 5.73
- GI50 ([1]; cell line MDAMB468): 5.01
- GI50 ([1]; cell line SKBR3): 5.68
- GI50 ([1]; cell line SUM52PE): 5.81
- GI50 ([1]; cell line SUM149PT): 5.03
- GI50 ([1]; cell line SUM159PT): 5.17
- GI50 ([1]; cell line SUM185PE): 5.95
- GI50 ([1]; cell line SUM225CWN): 6.05
- GI50 ([1]; cell line SUM1315MO): 5.33
- GI50 ([1]; cell line T47D): 5.78
- GI50 ([1]; cell line UACC812): 5.53
- GI50 ([1]; cell line ZR75B): 5.93
- GI50 ([1]; cell line ZR751): 5.94
- subtype-specific response (sensitivity by transcriptional subtype) ([2]; GI50 across subtypes): highest in luminal and ERBB2^AMP and lower in basal and claudin-low breast cancer cell lines; also recorded: Luminal and ERBB2AMP cell lines preferentially respond
- Subtype specificity ([2]; Table 6, most sensitive subtype, FDR p<0.20): Luminal/ERBB2AMP
